Key:
[1] = dogs, 20 mg/kg oral, measured as hydrolyzed carbapenem compound (A)
Experimental: The compound of the present invention (compound of Example 6, 20 mg/kg) was orally administered to dogs (3 per group) and urinary hydrolyzed carbapenem compound (A) concentration at 0-3, 3-6 and 6-24 hours later was measured by a paper disc method using test bacteria Escherichia coli NIHJ and nutrient agar medium (Difco). The urinary recovery percentage was determined.

[2] = dogs, 20 mg/kg oral, measured as hydrolyzed carbapenem compound (A); remark: listed apart in the source
Experimental: The compound of the present invention (compound of Example 6, 20 mglkg) was orally administered to dogs (3 per group) and plasma hydrolyzed carbapenem compound (A) concentration at 0.25, 0.5, 1.0, 1.5, 2.0, 3.0, 4.0 and 6.0 hours later was measured by a paper disc method using test bacteria Escherichia coli NIHJ and nutrient agar medium (Difco).

SMILES: Cc1oc(=O)oc1CN1C[C@@H](SC2=C(C(=O)OCOC(=O)C(C)(C)C)N3C(=O)[C@H]([C@@H](C)O)[C@H]3[C@H]2C)C[C@H]1C(=O)N(C)C.Cl [Example 6, Pivaloyloxymethyl (1R,5S,6S)-2-{(3S,5S)-[5-N,N-dimethylaminocarbonyl-1-(5-methyl-2-oxo-1,3-dioxolen-4-yl)methyl]pyrrolidin-3-ylthio}-6-[(1R)-1-hydroxyethyl]-1-methylcarbapen-2-em-3-carboxylate hydrochloride]
- urinary recovery (%) 0-3 hr ([1]; 0-3 hr): 10.3%
- urinary recovery (%) 0-24 hr ([1]; 0-24 hr): 13.0%
- urinary recovery (%) 3-6 hr ([1]; 3-6 hr): 2.4%
- urinary recovery (%) 6-24 hr ([1]; 6-24 hr): 0.3%
- concentration in plasma (μg/ml) 0.25 hr ([2]; 0.25 hr): 5.06 µg/mL
- concentration in plasma (μg/ml) 0.5 hr ([2]; 0.5 hr): 6.56 µg/mL
- concentration in plasma (μg/ml) 1.0 hr ([2]; 1.0 hr): 7.60 µg/mL
- concentration in plasma (μg/ml) 1.5 hr ([2]; 1.5 hr): 7.67 µg/mL
- concentration in plasma (μg/ml) 2.0 hr ([2]; 2.0 hr): 5.92 µg/mL
- concentration in plasma (μg/ml) 3.0 hr ([2]; 3.0 hr): 3.68 µg/mL
- concentration in plasma (μg/ml) 4.0 hr ([2]; 4.0 hr): 1.92 µg/mL
- concentration in plasma (μg/ml) 6.0 hr ([2]; 6.0 hr): 0.43 µg/mL

Reference: patent US6342494B1, “Carbapenem compounds, use thereof, and intermediate compounds of the same” (Kyoto Pharmaceutical Industries, Ltd., priority 1997, dated 2002)
